Test [1] deals with MV4; 11 cells. As to the kind of experiment: inhibiting the growth of MV4; 11 cells. The format is cell-based. The settings on record: Homo sapiens.
The target of test [2] is T1, hClpP (Homo sapiens, UniProt Q16740).
T1 construct: made in house
Description: activating ClpP hydrolysis of FITC-casein (fluorescence kinetic detection). The format is biochemical. The settings on record: hClpP 1 μM, FITC-Casein 4 μM, 37° C. A digest of the protocol:
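hClpP at 1 μM final preincubated with compounds (assay-buffer dilutions 200 μM–2 nM, before mixing) 30 min at 37 °C, then 4 μM final FITC-casein added. Fluorescence read kinetically at 37 °C every 1 min for 15 min, duplicate wells.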

The pIC50 is −log10 of the IC50, conventionally taken in molar units. Low values mean a large IC50, high ones a small IC50. By pEC50 is commonly meant −log10 of the EC50, conventionally taken in molar units. A high value points to a low EC50.

The structures appear in SMILES notation. pEC50, pIC50: −log10 of the molar value. Where only a bound is given, the exact number is not on record here.

T1 sequence (Q16740 57-277): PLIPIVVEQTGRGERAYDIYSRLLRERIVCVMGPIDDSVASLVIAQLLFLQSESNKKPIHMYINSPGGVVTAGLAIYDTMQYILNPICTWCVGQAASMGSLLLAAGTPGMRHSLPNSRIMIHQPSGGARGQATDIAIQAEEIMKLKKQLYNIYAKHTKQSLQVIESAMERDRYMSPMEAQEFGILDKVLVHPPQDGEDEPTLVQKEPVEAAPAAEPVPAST

In test [1], `N#Cc1cccc(CN2CCc3c(c(=O)n(Cc4ccc(C(F)(F)F)cc4)c4nccn34)C2)c1` [Compound I-131, 7-(3-cyanobenzyl)-4-(4-trifluoromethylbenzyl)-6,7,8,9-tetrahydroimidazo[1,2-a]pyrido[3,4-e]pyrimidine-5(4H)-one] gave a pIC50 of over 6.00. In test [2], this molecule had a pEC50 of over 6.00.

For the molecule `Cc1ccc(Cn2c(=O)c3c(n4ccnc24)CCN(Cc2ccccc2)C3)cc1` [Compound I-132, 7-benzyl-4-(4-methylbenzyl)-6,7,8,9-tetrahydroimidazo[1,2-a]pyrido[3,4-e]pyrimidine-5(4H)-one], the pIC50 in test [1] was over 6.00. This molecule had a pEC50 in test [2] of over 6.00.

As for `Cc1ccc(Cn2c(=O)c3c(n4ccnc24)CCN(Cc2cccc(F)c2)C3)cc1` [Compound I-133, 7-(3-fluorobenzyl)-4-(4-methylbenzyl)-6,7,8,9-tetrahydroimidazo[1,2-a]pyrido[3,4-e]pyrimidine-5(4H)-one], the pIC50 in test [1] is over 6.00. The same molecule gave a pEC50 in test [2] of over 6.00.

As to `Cc1ccc(Cn2c(=O)c3c(n4ccnc24)CCN(Cc2cccc(Cl)c2)C3)cc1` [Compound I-134, 7-(3-chlorobenzyl)-4-(4-methylbenzyl)-6,7,8,9-tetrahydroimidazo[1,2-a]pyrido[3,4-e]pyrimidine-5(4H)-one], the pIC50 in test [1] was over 6.00. The molecule also gave a pEC50 in test [2] of over 6.00.

The molecule `Cc1ccc(Cn2c(=O)c3c(n4ccnc24)CCN(Cc2cccc(C)c2)C3)cc1` [Compound I-135, 7-(3-methylbenzyl)-4-(4-methylbenzyl)-6,7,8,9-tetrahydroimidazo[1,2-a]pyrido[3,4-e]pyrimidine-5(4H)-one] had a pIC50 in test [1] of over 6.00. In test [2], this molecule had a pEC50 of over 6.00.

On to `Cc1ccc(Cn2c(=O)c3c(n4ccnc24)CCN(Cc2cccc(C#N)c2)C3)cc1` [Compound I-136, 7-(3-cyanobenzyl)-4-(4-methylbenzyl)-6,7,8,9-tetrahydroimidazo[1,2-a]pyrido[3,4-e]pyrimidine-5(4H)-one], for which the pIC50 in test [1] is over 6.00. In test [2], this molecule gave a pEC50 of over 6.00.

The molecule `CCc1ccc(Cn2c(=O)c3c(n4ccnc24)CCN(Cc2ccccc2)C3)cc1` [Compound I-137, 7-benzyl-4-(4-ethylbenzyl)-6,7,8,9-tetrahydroimidazo[1,2-a]pyrido[3,4-e]pyrimidine-5(4H)-one] showed a pIC50 in test [1] of over 6.00. Besides, the pEC50 in test [2] is over 6.00.

In the case of `CCc1ccc(Cn2c(=O)c3c(n4ccnc24)CCN(Cc2cccc(F)c2)C3)cc1` [Compound I-138, 7-(3-fluorobenzyl)-4-(4-ethylbenzyl)-6,7,8,9-tetrahydroimidazo[1,2-a]pyrido[3,4-e]pyrimidine-5(4H)-one], in test [1], the pIC50 is over 6.00. The molecule also had a pEC50 in test [2] of over 6.00.

On to `CCc1ccc(Cn2c(=O)c3c(n4ccnc24)CCN(Cc2cccc(Cl)c2)C3)cc1` [Compound I-139, 7-(3-chlorobenzyl)-4-(4-ethylbenzyl)-6,7,8,9-tetrahydroimidazo[1,2-a]pyrido[3,4-e]pyrimidine-5(4H)-one], for which, in test [1], the pIC50 is over 6.00. The pEC50 in test [2] is over 6.00.

In turn, `CCc1ccc(Cn2c(=O)c3c(n4ccnc24)CCN(Cc2cccc(C)c2)C3)cc1` [Compound I-140, 7-(3-methylbenzyl)-4-(4-ethylbenzyl)-6,7,8,9-tetrahydroimidazo[1,2-a]pyrido[3,4-e]pyrimidine-5(4H)-one] gave a pIC50 in test [1] of over 6.00. In test [2], the pEC50 is over 6.00.

Consider `CCc1ccc(Cn2c(=O)c3c(n4ccnc24)CCN(Cc2cccc(C#N)c2)C3)cc1` [Compound I-141, 7-(3-cyanobenzyl)-4-(4-ethylbenzyl)-6,7,8,9-tetrahydroimidazo[1,2-a]pyrido[3,4-e]pyrimidine-5(4H)-one], for which, in test [1], the pIC50 was over 6.00. For the same molecule, in test [2], the pEC50 was over 6.00.

`COc1ccc(Cn2c(=O)c3c(n4ccnc24)CCN(Cc2ccccc2)C3)cc1` [Compound I-142, 7-benzyl-4-(4-methoxybenzyl)-6,7,8,9-tetrahydroimidazo[1,2-a]pyrido[3,4-e]pyrimidine-5(4H)-one] gave a pIC50 in test [1] of over 6.00. Moreover, in test [2], the pEC50 was over 6.00.

For the molecule `COc1ccc(Cn2c(=O)c3c(n4ccnc24)CCN(Cc2cccc(F)c2)C3)cc1` [Compound I-143, 7-(3-fluorobenzyl)-4-(4-methoxybenzyl)-6,7,8,9-tetrahydroimidazo[1,2-a]pyrido[3,4-e]pyrimidine-5(4H)-one], the pIC50 in test [1] is over 6.00. In test [2], this molecule had a pEC50 of over 6.00.

On to `COc1ccc(Cn2c(=O)c3c(n4ccnc24)CCN(Cc2cccc(Cl)c2)C3)cc1` [Compound I-144, 7-(3-chlorobenzyl)-4-(4-methoxybenzyl)-6,7,8,9-tetrahydroimidazo[1,2-a]pyrido[3,4-e]pyrimidine-5(4H)-one], for which the pIC50 in test [1] is over 6.00. In test [2], this molecule showed a negative logarithm of the EC50 (pEC50) of over 6.00.

Molecule `COc1ccc(Cn2c(=O)c3c(n4ccnc24)CCN(Cc2cccc(C)c2)C3)cc1` [Compound I-145, 7-(3-methylbenzyl)-4-(4-methoxybenzyl)-6,7,8,9-tetrahydroimidazo[1,2-a]pyrido[3,4-e]pyrimidine-5(4H)-one] gave a pIC50 in test [1] of over 6.00. Also, the pEC50 in test [2] is over 6.00.

Regarding `COc1ccc(Cn2c(=O)c3c(n4ccnc24)CCN(Cc2cccc(C#N)c2)C3)cc1` [Compound I-146, 7-(3-cyanobenzyl)-4-(4-methoxybenzyl)-6,7,8,9-tetrahydroimidazo[1,2-a]pyrido[3,4-e]pyrimidine-5(4H)-one], the pIC50 in test [1] is over 6.00. In test [2], the pEC50 is over 6.00.

Turning to `O=c1c2c(n3ccnc3n1Cc1ccc3c(c1)OCO3)CCN(Cc1cccc(Cl)c1)C2` [Compound I-147, 7-(3-chlorobenzyl)-4-([1,3]benzodioxol-5-ylmethyl)-6,7,8,9-tetrahydroimidazo[1,2-a]pyrido[3,4-e]pyrimidine-5(4H)-one], the pIC50 in test [1] was 5.00 to 6.00. The molecule also showed a pEC50 in test [2] of 5.00 to 6.00.

For the molecule `O=c1c2c(n3ccnc3n1Cc1ccc3c(c1)OCCO3)CCN(Cc1cccc(Cl)c1)C2` [Compound I-148, 7-(3-chlorobenzyl)-4-((2,3-dihydro[1,4]benzodioxin-6-yl)methyl)-6,7,8,9-tetrahydroimidazo[1,2-a]pyrido[3,4-e]pyrimidine-5(4H)-one], in test [1], the negative-log IC50 (pIC50) is 5.00 to 6.00. The molecule also gave a pEC50 in test [2] of 5.00 to 6.00.

For `O=c1c2c(n3ncnc3n1Cc1ccc(C(F)(F)F)cc1)CCN(Cc1ccccc1)C2` [Compound I-149, 4-(4-trifluoromethylbenzyl)-7-benzyl-6,7,8,9-tetrahydropyrido[3,4-e][1,2,4]triazolo[1,5-a]pyrimidine-5(4H)-one], the pIC50 in test [1] is 5.00 to 6.00. Also, the pEC50 in test [2] was 5.00 to 6.00.

`O=c1c2c(n3ncnc3n1Cc1ccc(C(F)(F)F)cc1)CCN(Cc1cccc(Cl)c1)C2` [Compound I-150, 4-(4-trifluoromethylbenzyl)-7-(3-chlorobenzyl)-6,7,8,9-tetrahydropyrido[3,4-e][1,2,4]triazolo[1,5-a]pyrimidine-5(4H)-one] gave a pIC50 in test [1] of 5.00 to 6.00. In test [2], this molecule gave a negative-log EC50 (pEC50) of 5.00 to 6.00.

Consider `N#Cc1cccc(CN2CCc3c(c(=O)n(Cc4ccc(C(F)(F)F)cc4)c4ncnn34)C2)c1` [Compound I-151, 4-(4-trifluoromethylbenzyl)-7-(3-cyanobenzyl)-6,7,8,9-tetrahydropyrido[3,4-e][1,2,4]triazolo[1,5-a]pyrimidine-5(4H)-one], for which, in test [1], the negative logarithm of the IC50 (pIC50) was 5.00 to 6.00. The same molecule showed a pEC50 in test [2] of 5.00 to 6.00.

In test [1], `O=c1c2c(n3ncnc3n1Cc1ccc(Cl)cc1)CCN(Cc1ccccc1)C2` [Compound I-152, 4-(4-chlorobenzyl)-7-benzyl-6,7,8,9-tetrahydropyrido[3,4-e][1,2,4]triazolo[1,5-a]pyrimidine-5(4H)-one] had a pIC50 of 5.00 to 6.00. In test [2], the pEC50 is 5.00 to 6.00.

Take `O=c1c2c(n3ncnc3n1Cc1ccc(Cl)cc1)CCN(Cc1cccc(F)c1)C2` [Compound I-153, 4-(4-chlorobenzyl)-7-(3-fluorobenzyl)-6,7,8,9-tetrahydropyrido[3,4-e][1,2,4]triazolo[1,5-a]pyrimidine-5(4H)-one]: in test [1], the pIC50 is 5.00 to 6.00. The pEC50 in test [2] is 5.00 to 6.00.

In turn, `O=c1c2c(n3ncnc3n1Cc1ccc(Cl)cc1)CCN(Cc1cccc(Cl)c1)C2` [Compound I-154, 4-(4-chlorobenzyl)-7-(3-chlorobenzyl)-6,7,8,9-tetrahydropyrido[3,4-e][1,2,4]triazolo[1,5-a]pyrimidine-5(4H)-one] had a pIC50 in test [1] of 5.00 to 6.00. Moreover, the pEC50 in test [2] is 5.00 to 6.00.

Turning to `N#Cc1cccc(CN2CCc3c(c(=O)n(Cc4ccc(Cl)cc4)c4ncnn34)C2)c1` [Compound I-155, 4-(4-chlorobenzyl)-7-(3-cyanobenzyl)-6,7,8,9-tetrahydropyrido[3,4-e][1,2,4]triazolo[1,5-a]pyrimidine-5(4H)-one], the pIC50 in test [1] is 5.00 to 6.00. For the same molecule, the pEC50 in test [2] was 5.00 to 6.00.

`O=c1c2c(n3nccc3n1Cc1ccccc1)CCN(Cc1cccc(Cl)c1)C2` [Compound I-156, 4-benzyl-7-(3-chlorobenzyl)-6,7,8,9-tetrahydropyrazolo[1,5-a]pyrido[3,4-e]pyrimidine-5(4H)-one]: the pIC50 in test [1] was 5.00 to 6.00. Moreover, in test [2], the pEC50 was 5.00 to 6.00.

Take `N#Cc1cccc(CN2CCc3c(c(=O)n(Cc4ccccc4)c4ccnn34)C2)c1` [Compound I-157, 4-benzyl-7-(3-cyanobenzyl)-6,7,8,9-tetrahydropyrazolo[1,5-a]pyrido[3,4-e]pyrimidine-5(4H)-one]: the pIC50 in test [1] is 5.00 to 6.00. The molecule also had a pEC50 in test [2] of 5.00 to 6.00.

In turn, `Cc1cccc(CN2CCc3c(c(=O)n(Cc4ccccc4)c4ccnn34)C2)c1` [Compound I-158, 4-benzyl-7-(3-methylbenzyl)-6,7,8,9-tetrahydropyrazolo[1,5-a]pyrido[3,4-e]pyrimidine-5(4H)-one] showed a pIC50 in test [1] of 5.00 to 6.00. The molecule also had a pEC50 in test [2] of 5.00 to 6.00.

In test [1], `O=c1c2c(n3nccc3n1Cc1ccc(C(F)(F)F)cc1)CCN(Cc1ccccc1)C2` [Compound I-159, 4-(4-trifluoromethylbenzyl)-7-benzyl-6,7,8,9-tetrahydropyrazolo[1,5-a]pyrido[3,4-e]pyrimidine-5(4H)-one] showed a pIC50 of 5.00 to 6.00. For the same molecule, in test [2], the pEC50 is 5.00 to 6.00.

The record behind these values is US20240327408A1, “COMPOUNDS CONTAINING TETRAHYDRONAPHTHYRIDINONE OR TETRAHYDROPYRIDOPYRIMIDINONE SKELETON, PREPARATION METHOD THEREFOR AND PHARMACEUTICAL USE THEREOF” (CHINA PHARMACEUTICAL UNIVERSITY, priority 2021, published 2024).
